# Measured values reported in publication PMC5944028, “Nonclinical and clinical pharmacological characterization of the potent and selective cathepsin K inhibitor MIV-711” (Journal of Translational Medicine, 2018).
# Legend:
# [1] = biological target: T1, dog cathepsin K (Canis lupus familiaris, UniProt Q3ZKN1); assay: Recombinant enzyme assay, dog cathepsin K; format: biochemical; conditions: geometric mean
# T1 construct: made in house; host or cells: E. coli
# Text: (§1) Recombinant cathepsin K enzymes from all species were expressed in E. coli, purified and activated. Human cathepsin F and cathepsin S were expressed in Baculovirus, purified and activated. Purified human cathepsins B and H (Athens Research Technology), cathepsin L (Calbiochem), and cathepsin V (R & D Systems) were purchased.
# (§2) H-D-Ala_Leu-Lys-AMC was used as the substrate in assays of cathepsin K from non-rodent species (human, dog, rabbit and guinea pig), and Z-Leu-Arg-AMC was used as the substrate in assays of cathepsin K from rodent species (mouse and rat). […]
# (§3) Assays were carried out in white polystyrene 96-well plates in a final volume of 100 µL. […] Plates were read in a Fluoroskan Ascent (Thermo Labsystems, Helsinki, Finland) in kinetic mode, with excitation and emission filters of 390 and 460 nm, respectively. Rates were determined by linear regression of the fluorescence/time data in Excel. Rates were fitted by non-linear regression to either the competitive inhibition equation, with the substrate concentration fixed at the value in the assay and the KM fixed to the value previously determined, or the IC50 equation using GraphPad Prism (GraphPad, version 6, San Diego, USA) to obtain Ki or IC50 values, respectively.
# [2] = Human plasma pharmacokinetics, single ascending dose study; format: in vivo, human healthy subjects; conditions: for AUC0–t / AUCinf / Cmax / Cmax/dose / t½: geometric mean (CV%); for tmax: median (min–max)
# Text: Twenty-seven healthy male and female subjects (18 male and 9 female) of any ethnic origin (24 White, 1 Asian, 1 Black, 1 Black/Caribbean White), aged between 19 and 64 years, and with a body mass index (BMI) between 18.0 and 32.0 kg/m^2, were selected for this study. Inclusion criteria for enrollment followed the standard practice for first-in-man studies.
# This was a randomized, double-blind, placebo-controlled, sequential, single-ascending dose study conducted at a single site with the objective of evaluating the safety, tolerability, pharmacokinetics (PK) and pharmacodynamics of MIV-711. Subjects were randomized into 3 groups using a computer-generated pseudo-random permutation procedure. Each group consisted of 9 subjects with at least 3 subjects of each gender per group and subjects participated in 1–2 treatment periods. There was a minimum of 10 days between dose escalations and a minimum of 20 days between dosing occasions for individual subjects. For each subsequent dosing occasion, the decision to escalate the dose to the next level was taken after a thorough review of the safety, tolerability and PK data. In each treatment period, 7 subjects received MIV-711 and 2 received placebo (comprising of 1 subject of each gender). Dosing occurred on the morning of Day 1 following an overnight fast and subjects were kept in the fasted state until approximately 4.5 h after dosing. MIV-711 was given as a combination of 10 or 40 mg hard gelatin capsules, while placebo was given in similar capsules of identical appearance.
# Blood samples were collected at pre-dose, 0.5, 1, 1.5, 2, 3, 4, 6, 8, 12, 16, 24, 36 and 48 h post-dose and processed into plasma for the measurement of concentrations of MIV-711. The PK analysis was conducted using WinNonlin Enterprise Version 5.2 (Pharsight Corporation, Mountain View, CA, USA).
# The quantification of MIV-711 in monkey plasma was performed by taking 10–50 µL of plasma and mixing with 3 volumes of acetonitrile (10 s, Vibrofix). The sample was centrifuged (10 min, 20,000×g, 7 °C) and 5 µL of the supernatant was injected onto the liquid chromatography with tandem mass spectrometric detection (LC–MS/MS) system. The lowest concentration of the standard curves and the lower limit of quantification (LLOQ) was 1 nmol/L of MIV-711. The human plasma samples were prepared by protein precipitation for sample extraction followed by LC–MS/MS. The lowest concentration of the standard curves and the LLOQ was 4 nmol/L of MIV-711 using 25 µL of plasma.
# [3] = biological target: T2, human cathepsin B (Homo sapiens, UniProt P07858); assay: Enzyme assay, human cathepsin B; format: biochemical
# T2 construct: purchased Athens Research Technology
# Text: as §1, §2, §3
# T1 sequence (Q3ZKN1 116-330): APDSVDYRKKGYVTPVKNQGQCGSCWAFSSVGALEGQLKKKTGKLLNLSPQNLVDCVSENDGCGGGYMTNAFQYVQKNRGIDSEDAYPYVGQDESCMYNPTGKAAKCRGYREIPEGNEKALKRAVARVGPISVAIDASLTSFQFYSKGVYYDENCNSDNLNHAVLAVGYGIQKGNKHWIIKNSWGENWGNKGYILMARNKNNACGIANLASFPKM
smiles,measurement,setting,value
C#C[C@@H]1CN(C(=O)[C@H](CC(C)C)NC(=O)c2ccc(-c3nc(N4CCN(C)CC4)sc3F)cc2)[C@@H]2C(=O)CO[C@H]12 [MIV-711],Ki,[1],1.5 nM
same,AUC0–t,[2]; 20 mg single oral dose,0.128 (36) µmol/L × h
same,AUCinf,[2]; 20 mg single oral dose,0.158 (32) µmol/L × h
same,Cmax,[2]; 20 mg single oral dose,33 nM
same,Cmax/dose,[2]; 20 mg single oral dose,0.12 (26)
same,t½,[2]; 20 mg single oral dose,3.4 (13) h
same,tmax,[2]; 20 mg single oral dose,1.0 (0.50–2.0) h
same,AUC0–24h,[2]; 100 mg,1.1 µmol·h/L
same,AUC0–t,[2]; 100 mg single oral dose,1.13 (38) µmol/L × h
same,AUCinf,[2]; 100 mg single oral dose,1.17 (37) µmol/L × h
same,Cmax,[2]; 100 mg single oral dose,293 nM
same,Cmax/dose,[2]; 100 mg single oral dose,0.21 (23)
same,t½,[2]; 100 mg single oral dose,3.7 (15) h
same,tmax,[2]; 100 mg single oral dose,1.0 (1.0–2.2) h
same,Plasma levels at 24 h post-dose,"[2]; 100 mg, mostly below LLOQ",< 4 nmol/L
same,AUC0–t,[2]; 200 mg single oral dose,2.45 (36) µmol/L × h
same,AUCinf,[2]; 200 mg single oral dose,2.51 (35) µmol/L × h
same,Cmax,[2]; 200 mg single oral dose,756 nM
same,Cmax/dose,[2]; 200 mg single oral dose,0.27 (36)
same,t½,[2]; 200 mg single oral dose,5.0 (16) h
same,tmax,[2]; 200 mg single oral dose,1.0 (0.50–1.0) h
same,AUC0–t,[2]; 400 mg single oral dose,4.62 (33) µmol/L × h
same,AUCinf,[2]; 400 mg single oral dose,4.75 (32) µmol/L × h
same,Cmax,[2]; 400 mg single oral dose,1180 nM
same,Cmax/dose,[2]; 400 mg single oral dose,0.23 (37)
same,t½,[2]; 400 mg single oral dose,6.5 (44) h
same,tmax,[2]; 400 mg single oral dose,1.0 (1.0–1.5) h
same,AUC0–t,[2]; 600 mg single oral dose,6.75 (30) µmol/L × h
same,AUCinf,[2]; 600 mg single oral dose,6.89 (30) µmol/L × h
same,Cmax,[2]; 600 mg single oral dose,1390 nM
same,Cmax/dose,[2]; 600 mg single oral dose,0.17 (38)
same,t½,[2]; 600 mg single oral dose,8.3 (34) h
same,tmax,[2]; 600 mg single oral dose,1.0 (1.0–3.0) h
same,Excreted renally unchanged,[2]; data not shown,less than 1%
same,mean terminal t1/2,[2]; over the 20–600 mg dose range,3.4 to 8.3 h
same,median tmax,[2]; single oral doses,1 h
same,Ki,[3],1300 nM
